Measurements: ChEMBL document CHEMBL4340509, “Synthesis and evaluation of novel GSK-3β inhibitors as multifunctional agents against Alzheimer's disease” (Eur J Med Chem, 2019)
The source made the active and inactive calls. The calls are words filed in the database; no cut-off is given here.

How the values were obtained:
[1] = target: T1, Glycogen synthase kinase-3 beta (Homo sapiens, UniProt P49841); test: Inhibition of GSK-3beta (unknown origin) using FAM-labeled peptide as substrate preincubated for 10 mins followed by substrate addition by caliper assay
Target sequence in this assay (P49841 whole entry): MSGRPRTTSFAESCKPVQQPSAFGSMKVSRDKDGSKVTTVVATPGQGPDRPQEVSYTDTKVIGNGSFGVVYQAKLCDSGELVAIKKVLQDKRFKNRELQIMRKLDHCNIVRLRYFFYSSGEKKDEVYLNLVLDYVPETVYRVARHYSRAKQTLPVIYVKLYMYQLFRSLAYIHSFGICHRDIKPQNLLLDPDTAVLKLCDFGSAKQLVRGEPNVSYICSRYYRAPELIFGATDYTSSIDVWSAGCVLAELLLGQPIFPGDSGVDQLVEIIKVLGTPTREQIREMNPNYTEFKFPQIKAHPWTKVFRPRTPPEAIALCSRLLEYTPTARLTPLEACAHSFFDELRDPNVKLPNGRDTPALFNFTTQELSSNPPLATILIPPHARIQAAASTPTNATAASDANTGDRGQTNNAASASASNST

[2] = Metal chelating activity assessed as Na+-compound complex formation at 20 uM in the presence of NaCl after 30 mins by UV-vis spectrophotometric analysis
[3] = Metal chelating activity assessed as K+-compound complex formation at 20 uM in the presence of KCl after 30 mins by UV-vis spectrophotometric analysis
[4] = Metal chelating activity assessed as compound-Ca2+ complex formation at 20 uM in the presence of CaCl2 after 30 mins by UV-visible spectrophotometric analysis
[5] = Metal chelating activity assessed as compound-Fe2+ complex formation at 20 uM in the presence of FeSO4 after 30 mins by UV-visible spectrophotometric analysis
[6] = Metal chelating activity assessed as compound-Mg2+ complex formation at 20 uM in the presence of MgCl2 after 30 mins by UV-visible spectrophotometric analysis
[7] = Metal chelating activity assessed as compound-Zn2+ complex formation at 20 uM in presence of ZnCl2 after 30 mins by UV-visible spectrophotometric analysis
[8] = target: Amyloid-beta precursor protein (Homo sapiens) (UniProt P05067); test: Inhibition of human HFIP-pretreated amyloid beta (1 to 42) self aggregation at 40 uM after 24 hrs by ThT-based fluorometric method relative to control
Chain of Amyloid-beta precursor protein (Homo sapiens) (P05067 whole entry): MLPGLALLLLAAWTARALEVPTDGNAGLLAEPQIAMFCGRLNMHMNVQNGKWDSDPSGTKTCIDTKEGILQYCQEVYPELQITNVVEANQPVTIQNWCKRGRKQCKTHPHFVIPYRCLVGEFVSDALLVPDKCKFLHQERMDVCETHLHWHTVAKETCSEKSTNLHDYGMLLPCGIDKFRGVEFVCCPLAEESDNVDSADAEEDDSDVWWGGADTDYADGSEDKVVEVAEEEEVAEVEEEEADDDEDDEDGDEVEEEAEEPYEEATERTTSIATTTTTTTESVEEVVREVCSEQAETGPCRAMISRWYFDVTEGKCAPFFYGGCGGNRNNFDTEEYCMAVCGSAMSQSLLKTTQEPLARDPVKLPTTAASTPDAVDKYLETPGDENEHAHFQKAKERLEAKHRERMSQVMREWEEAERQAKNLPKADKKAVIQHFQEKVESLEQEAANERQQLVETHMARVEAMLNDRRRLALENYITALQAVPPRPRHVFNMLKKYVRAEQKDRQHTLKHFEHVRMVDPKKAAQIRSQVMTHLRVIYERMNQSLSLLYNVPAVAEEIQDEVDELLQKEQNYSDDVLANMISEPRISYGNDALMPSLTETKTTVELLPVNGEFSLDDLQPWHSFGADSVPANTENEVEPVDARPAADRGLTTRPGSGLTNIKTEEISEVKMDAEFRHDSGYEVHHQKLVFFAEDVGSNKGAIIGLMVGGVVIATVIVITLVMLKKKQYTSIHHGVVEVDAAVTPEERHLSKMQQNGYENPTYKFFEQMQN

[9] = target: Amyloid-beta precursor protein (Homo sapiens) (UniProt P05067); test: Disaggregation of HFIP-pretreated human amyloid beta (1 to 42) preformed fibrils at 40 uM after 24 hrs by ThT-based fluorometric method relative to control
[10] = Inhibition of Cu2+-induced HFIP pretreated human amyloid beta (1 to 42) aggregation at 40 uM measured after 24 hrs by ThT-based fluorescence assay relative to control
[11] = Disaggregation of Cu2+ induced human HFIP-pretreated amyloid beta (1 to 42) preformed fibrils at 40 uM measured after 24 hrs by ThT-based fluorescence assay relative to control
[12] = Metal chelating activity assessed as inhibition of Cu(II)/ascorbate-induced ROS production by measuring fluorescence intensity at 100 uM measured at 20 secs interval for 1000 secs by fluorescence assay (reference value: 10 to 52)
[13] = Antioxidant activity assessed as ABTS radical scavenging activity incubated for 6 mins; assay type: functional
[14] = Potency index, ratio of trolox IC50 to test compound IC50 for ABTS radical scavenging activity; assay type: functional
[15] = test system: SH-SY5Y; test: Cytotoxicity against human SH-SY5Y cells measured after 24 hrs by MTT assay; assay type: cell-based
[16] = test system: PC-12; test: Cytotoxicity against rat PC12 cells measured after 24 hrs by MTT assay; assay type: cell-based; conditions: PC-12, 24 h
[17] = test system: SH-SY5Y; test: Neuroprotective activity against H2O2-induced oxidative damage in human SH-SY5Y cells assessed as increase in cell viability measured after 24 hrs by MTT assay; assay type: functional, cell-based
[18] = test system: SH-SY5Y; test: Neuroprotective activity against H2O2-induced oxidative damage in human SH-SY5Y cells assessed as cell viability at 10 uM measured after 24 hrs by MTT assay relative to control; assay type: functional; conditions: read-out: Activity
[19] = test system: PC-12; test: Neuroprotective activity against H2O2-induced oxidative damage in rat PC12 cells assessed as cell viability at 10 uM measured after 24 hrs by MTT assay relative to control; assay type: functional; conditions: PC-12, 24 h, read-out: Activity
[20] = test system: SH-SY5Y; test: Neuroprotective activity against amyloid beta (1 to 42) (unknown origin)-induced cytotoxicity in SH-SY5Y cells assessed as cell viability at 2 uM measured after 24 hrs by MTT assay (reference value: 78%); assay type: functional; conditions: Homo sapiens
[21] = target: T1, Glycogen synthase kinase-3 beta; test: Inhibition of GSK3bbeta in human SH-SY5Y cells assessed as reduction in human amyloid beta (25 to 35) peptide-induced tau hyperphosphorylation at Ser396 residue at 25 uM preincubated for 1 hr followed by amyloid beta-stimulation and measured after 6 hrs by Western blot analysis relative to control; assay type: cell-based
Target sequence in this assay (P49841 whole entry, looked up): as the sequence (P49841 whole entry) above

[22] = test system: SH-SY5Y; test: Cytotoxicity against human SH-SY5Y cells at 2 uM in the presence of CuCl2 measured after 24 hrs by MTT assay; assay type: cell-based
[23] = test system: SH-SY5Y; test: Neuroprotective activity against Cu2+-mediated amyloid beta (1 to 42) (unknown origin)-induced cytotoxicity in human SH-SY5Y cells assessed as cell viability at 2 uM measured after 24 hrs by MTT assay (reference value: 71%); assay type: functional; conditions: read-out: Activity
[24] = target: T1, Glycogen synthase kinase-3 beta; test: Inhibition of GSK3bbeta in human SH-SY5Y cells assessed as reduction in human amyloid beta (25 to 35) peptide-induced tau hyperphosphorylation at Ser396 residue preincubated for 1 hr followed by amyloid beta-stimulation and measured after 6 hrs by Western blot analysis; assay type: cell-based
Target sequence in this assay (P49841 whole entry, looked up): as the sequence (P49841 whole entry) above

[25] = Metal chelating activity assessed as compound-Cu2+ complex formation by measuring blue shift in maximum absorption at 20 uM in presence of CuCl2 after 30 mins by UV-visible spectrophotometric analysis (reference value: 248 nanometer)
[26] = Metal chelating activity assessed as compound-Al3+ complex formation by measuring blue shift in maximum absorption at 20 uM in the presence of AlCl3 after 30 mins by UV-visible spectrophotometric analysis (reference value: 248 to 407 nanometer)
[27] = Potency index, ratio of test compound effect to clioquinol effect for disaggregation of Cu2+ induced human HFIP-pretreated amyloid beta (1 to 42) preformed fibrils

Nc1ncc(-c2ccccc2)cc1/N=C/c1ccnc(NC(=O)C2CC2)c1
IC50 [1]: 0.049 µM
Activity [2]: inactive
Activity [3]: inactive
Activity [4]: inactive
Activity [5]: inactive
Activity [6]: inactive
Activity [7]: inactive
inhibition [8]: inactive
Activity [9]: inactive
inhibition [10]: 63%
Activity [11]: 66.1%
Flu intensity [12]: 53 to 68
IC50 [13]: 7.3 µM
Ratio IC50 [14]: 2 to 4
IC50 [15]: 158 µM
IC50 [16]: 83.2 µM
Activity [17]: Dose-dependent effect
viability at 10 µM [18]: 92.7%
viability at 10 µM [19]: 71.8%
Activity [20]: inactive
inhibition [21]: < 50%
Activity [22]: Non-Toxic
viability at 2 µM [23]: 93%
inhibition [24]: Dose-dependent effect
Activity [25]: 244 nm
Activity [26]: 242 to 339 nm
Ratio [27]: 2
